Blank lines part the entries; values can stand above or below the compound they belong to. Active and inactive are the calls of the source.
How the values were obtained:
CHO = CHO cell viability loss, potency – luminescence, cytotoxicity control for TLR9-MyD88 binding inhibitor project, dose response (AID 588339); type: functional, cell-based, hamster; details: Cricetulus griseus;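 note: CHO cells stably coexpressing TLR9 and MyD88 fusions from primary screen; compound exposure lasted 48 hours before viability readout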
[1] = non-specific 3'UTR reporter inhibition in Clone20-Shn3RL – cell-based, Renilla luciferase, cherry-picked, counter-screen for Shn3 inhibitor project, dose response (AID 624133); type: functional
[2] = loss of viability in HepG2 cells – cell-based, CellTiter-Glo, cherry-picked, cytotoxicity control for Shn3 inhibitor project, dose response (AID 624134); type: functional
[3] = reduction of Shn3 3'UTR-driven luciferase in osteoblasts – cell-based, Clone20 osteoblasts, firefly luciferase, cherry-picked, dose response (AID 624132); type: functional;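 note: firefly luciferase luminescence from reporter carrying the Shn3 3'UTR in osteoblasts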
Beta Lactamase = Beta Lactamase (Pseudomonas aeruginosa, UniProt Q932Y6); test: BLA reporter interference, concentration series – BLA reporter cells, FRET fluorescence, artefact control for TLR9-MyD88 binding inhibitor project, dose response (AID 588341); type: cell-based;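 note: cell based assay in CHO-K1 cells stably expressing beta-lactamase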
Sequence of Beta Lactamase (Q932Y6 whole entry): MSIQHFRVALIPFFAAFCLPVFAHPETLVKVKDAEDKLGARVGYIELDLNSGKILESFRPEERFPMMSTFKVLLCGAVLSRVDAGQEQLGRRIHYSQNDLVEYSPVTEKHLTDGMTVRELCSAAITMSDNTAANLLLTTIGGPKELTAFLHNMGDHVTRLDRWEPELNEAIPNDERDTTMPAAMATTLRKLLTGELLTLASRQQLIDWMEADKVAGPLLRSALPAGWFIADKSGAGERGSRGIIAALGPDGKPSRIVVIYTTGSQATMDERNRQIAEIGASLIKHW

[4] = Mcl1-dependent cancer cell viability – HMC-1-8 cells, luminescence, dry powder, selectivity assay for A1 inhibitor project, dose response (AID 504415); type: functional, cell-based; details: Homo sapiens
INS1 [5] = test: cellular ATP toxicity in rat beta cells – cell-based, CellTiter-Glo luminescence, INS-1E, dry powder, cytotoxicity control for beta-cell cytokine protection project, dose response (AID 488864); type: functional
[6] = blockade of melanocortin 4 receptor signaling – cell-based, plate reader, cherry pick, counter-screen for LGR2 antagonist project, dose response (AID 743444); type: functional;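 note: transfected HEK 293 cells stimulated with alpha-MSH peptide; potency of inhibitors of the alpha-MSH evoked signal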
[7] = viability loss in HEK293 cells – cell-based, plate reader, cherry-picked samples, cytotoxicity control, dose response (AID 743446); type: functional
[8] = toxicity toward HepG2 liver cells – cell-based, plate reader, cherry-pick, antagonist series, cytotoxicity control, dose response (AID 743416); type: functional
[9] = suppression of NO production in INS-1E cells – cell-based, Griess absorbance, dry powder, set 3, dose response (AID 488870); type: functional; details: Rattus norvegicus
[10] = A549 cell cytotoxicity, dose response, cytotoxicity control, plate reader, cherry-pick, antagonist series (AID 743412); type: functional, cell-based
[11] = blockers of bursicon-stimulated LGR2 cAMP reporter – cell-based, HEK293, CRE-luciferase reporter, cherry pick, set 2, dose response (AID 743343); type: functional;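 note: transfected cells were stimulated with diluted bursicon conditioned medium after compound addition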
INS1 [12] = test: suppression of NO production in INS-1E cells – cell-based, Griess absorbance, dry powder, set 2, dose response (AID 488868); type: functional; details: Rattus norvegicus
[13] = target: Homeodomain-interacting protein kinase 2 (Homo sapiens, UniProt Q9H2X6); type: functional;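 note: measured within a kinome-wide kinase profiling panel, HIPK2 being one panel member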
Sequence of Homeodomain-interacting protein kinase 2 (Q9H2X6 whole entry): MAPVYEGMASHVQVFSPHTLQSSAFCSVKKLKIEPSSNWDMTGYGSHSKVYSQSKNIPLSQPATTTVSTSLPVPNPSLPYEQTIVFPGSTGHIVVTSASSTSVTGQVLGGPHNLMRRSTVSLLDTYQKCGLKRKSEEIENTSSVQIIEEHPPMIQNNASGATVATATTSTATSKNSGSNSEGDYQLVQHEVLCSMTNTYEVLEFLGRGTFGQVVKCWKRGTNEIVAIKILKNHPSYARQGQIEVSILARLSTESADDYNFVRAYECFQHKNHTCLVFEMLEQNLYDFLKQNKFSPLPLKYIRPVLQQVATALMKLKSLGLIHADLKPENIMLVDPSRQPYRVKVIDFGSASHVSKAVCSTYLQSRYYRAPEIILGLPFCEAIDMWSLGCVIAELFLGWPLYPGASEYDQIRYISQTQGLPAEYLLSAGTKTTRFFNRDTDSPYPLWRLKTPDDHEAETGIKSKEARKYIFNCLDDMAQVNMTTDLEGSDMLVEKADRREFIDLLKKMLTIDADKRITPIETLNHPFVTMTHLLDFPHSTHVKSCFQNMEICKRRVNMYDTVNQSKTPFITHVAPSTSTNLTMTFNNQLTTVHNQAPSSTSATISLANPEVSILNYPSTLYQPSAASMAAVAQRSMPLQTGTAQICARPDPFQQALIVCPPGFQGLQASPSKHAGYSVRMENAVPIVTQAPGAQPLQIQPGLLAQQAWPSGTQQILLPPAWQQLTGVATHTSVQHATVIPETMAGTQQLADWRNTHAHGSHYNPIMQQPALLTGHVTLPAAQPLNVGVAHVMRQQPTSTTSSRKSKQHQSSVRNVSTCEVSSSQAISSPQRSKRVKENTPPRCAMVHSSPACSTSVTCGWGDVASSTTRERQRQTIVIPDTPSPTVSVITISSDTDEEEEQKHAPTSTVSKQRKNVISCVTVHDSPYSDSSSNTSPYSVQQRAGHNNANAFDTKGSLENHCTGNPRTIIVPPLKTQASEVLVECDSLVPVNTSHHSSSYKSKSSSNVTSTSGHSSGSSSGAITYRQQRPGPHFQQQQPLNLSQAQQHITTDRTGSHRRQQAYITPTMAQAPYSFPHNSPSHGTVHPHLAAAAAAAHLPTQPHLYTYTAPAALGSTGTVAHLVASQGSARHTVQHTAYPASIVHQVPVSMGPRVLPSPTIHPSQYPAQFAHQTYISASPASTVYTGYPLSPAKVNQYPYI

[14] = target: Serine/threonine-protein kinase pim-1 (Homo sapiens, UniProt P11309); type: functional
Sequence of Serine/threonine-protein kinase pim-1 (P11309 whole entry): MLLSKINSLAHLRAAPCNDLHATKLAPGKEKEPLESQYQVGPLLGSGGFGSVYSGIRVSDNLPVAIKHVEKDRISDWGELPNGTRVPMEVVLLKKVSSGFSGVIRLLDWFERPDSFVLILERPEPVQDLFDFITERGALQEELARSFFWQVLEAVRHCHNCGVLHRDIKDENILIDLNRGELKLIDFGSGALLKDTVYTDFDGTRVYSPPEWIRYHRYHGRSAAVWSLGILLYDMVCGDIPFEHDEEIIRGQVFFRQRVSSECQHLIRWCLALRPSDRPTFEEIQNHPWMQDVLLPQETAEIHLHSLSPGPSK

[15] = target: Cell division cycle 7-related protein kinase (Homo sapiens, UniProt O00311); type: functional;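 note: value obtained from a kinome-wide kinase panel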
Sequence of Cell division cycle 7-related protein kinase (O00311 whole entry): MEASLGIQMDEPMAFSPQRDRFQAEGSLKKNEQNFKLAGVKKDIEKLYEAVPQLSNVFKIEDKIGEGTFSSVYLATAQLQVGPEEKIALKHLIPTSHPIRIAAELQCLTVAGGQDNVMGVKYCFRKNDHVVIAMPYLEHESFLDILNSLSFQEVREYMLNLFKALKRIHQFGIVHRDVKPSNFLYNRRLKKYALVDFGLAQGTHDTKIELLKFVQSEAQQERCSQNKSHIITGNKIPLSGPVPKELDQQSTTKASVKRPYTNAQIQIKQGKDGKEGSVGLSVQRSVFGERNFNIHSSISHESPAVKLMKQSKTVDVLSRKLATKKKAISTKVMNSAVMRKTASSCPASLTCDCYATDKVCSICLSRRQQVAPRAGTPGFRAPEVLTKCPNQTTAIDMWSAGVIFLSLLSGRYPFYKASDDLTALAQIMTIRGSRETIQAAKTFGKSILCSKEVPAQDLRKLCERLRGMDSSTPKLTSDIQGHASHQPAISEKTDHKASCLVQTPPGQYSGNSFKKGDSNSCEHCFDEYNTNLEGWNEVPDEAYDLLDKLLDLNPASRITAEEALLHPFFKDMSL

[16] = target: Mitogen-activated protein kinase kinase kinase kinase 4 (Homo sapiens, UniProt O95819); type: functional
Sequence of Mitogen-activated protein kinase kinase kinase kinase 4 (O95819 whole entry): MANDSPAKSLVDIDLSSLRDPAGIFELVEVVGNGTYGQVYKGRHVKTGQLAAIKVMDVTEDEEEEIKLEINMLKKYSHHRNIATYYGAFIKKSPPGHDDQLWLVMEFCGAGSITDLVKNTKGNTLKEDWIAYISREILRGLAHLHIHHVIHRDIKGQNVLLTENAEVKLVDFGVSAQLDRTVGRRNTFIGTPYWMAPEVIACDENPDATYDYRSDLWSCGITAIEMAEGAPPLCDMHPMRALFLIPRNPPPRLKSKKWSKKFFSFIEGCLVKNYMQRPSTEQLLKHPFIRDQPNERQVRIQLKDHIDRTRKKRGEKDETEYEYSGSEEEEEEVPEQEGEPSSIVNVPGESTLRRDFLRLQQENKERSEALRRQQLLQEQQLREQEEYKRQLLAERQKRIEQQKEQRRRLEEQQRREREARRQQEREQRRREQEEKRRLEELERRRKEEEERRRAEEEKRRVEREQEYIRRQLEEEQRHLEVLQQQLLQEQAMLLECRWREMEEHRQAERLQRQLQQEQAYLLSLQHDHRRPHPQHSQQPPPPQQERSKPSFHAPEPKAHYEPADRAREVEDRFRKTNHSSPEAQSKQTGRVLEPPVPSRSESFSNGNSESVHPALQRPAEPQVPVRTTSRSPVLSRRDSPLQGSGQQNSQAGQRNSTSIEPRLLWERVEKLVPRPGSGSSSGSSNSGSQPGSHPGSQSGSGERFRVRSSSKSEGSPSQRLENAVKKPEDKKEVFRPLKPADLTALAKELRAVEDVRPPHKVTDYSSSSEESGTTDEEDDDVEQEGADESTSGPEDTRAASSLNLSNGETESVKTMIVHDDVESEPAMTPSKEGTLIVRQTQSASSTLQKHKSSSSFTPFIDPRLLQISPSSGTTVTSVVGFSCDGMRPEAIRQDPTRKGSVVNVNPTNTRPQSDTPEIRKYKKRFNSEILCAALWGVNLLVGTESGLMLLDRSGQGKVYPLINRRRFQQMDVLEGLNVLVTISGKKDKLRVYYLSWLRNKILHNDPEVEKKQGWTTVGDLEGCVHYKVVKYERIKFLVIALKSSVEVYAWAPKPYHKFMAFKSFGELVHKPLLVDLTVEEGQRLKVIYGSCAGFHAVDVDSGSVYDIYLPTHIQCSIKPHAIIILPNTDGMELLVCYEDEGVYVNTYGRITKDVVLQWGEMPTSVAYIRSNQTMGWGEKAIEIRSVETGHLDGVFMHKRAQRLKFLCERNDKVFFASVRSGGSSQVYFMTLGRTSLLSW

[17] = target: cAMP-dependent protein kinase catalytic subunit alpha (Homo sapiens, UniProt P17612); type: functional
[18] = target: Interleukin-1 receptor-associated kinase 4 (Homo sapiens, UniProt Q9NWZ3); type: functional
Sequence of Interleukin-1 receptor-associated kinase 4 (Q9NWZ3 whole entry): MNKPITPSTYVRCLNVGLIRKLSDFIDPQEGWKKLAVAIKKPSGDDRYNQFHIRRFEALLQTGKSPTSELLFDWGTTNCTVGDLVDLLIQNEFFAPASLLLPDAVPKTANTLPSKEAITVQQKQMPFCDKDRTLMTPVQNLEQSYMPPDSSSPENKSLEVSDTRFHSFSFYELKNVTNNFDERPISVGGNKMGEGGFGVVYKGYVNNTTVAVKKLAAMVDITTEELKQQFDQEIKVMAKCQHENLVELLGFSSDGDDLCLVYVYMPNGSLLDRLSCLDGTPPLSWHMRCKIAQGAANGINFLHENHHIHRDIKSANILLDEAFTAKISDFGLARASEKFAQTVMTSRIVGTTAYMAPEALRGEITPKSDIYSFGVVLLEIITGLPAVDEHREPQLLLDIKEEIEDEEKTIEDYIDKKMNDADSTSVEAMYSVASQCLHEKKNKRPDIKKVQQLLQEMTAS

SMILES: C=C1C(=O)c2sccc2C(c2ccc(OC)c(OC)c2)C1COC(C)=O (stereo not given)
- IC50 (CHO): 1.69 µM (active)
- AC50 [1]: 3.62 µM (active)
- AC50 [2]: 6.99 µM (active)
- AC50 [3]: 0.662 µM (active)
- IC50 (Beta Lactamase): 21.4 µM (inactive)

SMILES: Cc1ccc(Sc2c([N+](=O)[O-])c(=O)oc3ccccc23)cc1
- AC50 [4]: 37.1 µM (active)

SMILES: COc1ccc(S(=O)(=O)N(C)C[C@@H]2Oc3c(NC(=O)c4nc5ccccc5s4)cccc3C(=O)N([C@@H](C)CO)C[C@H]2C)cc1
- AC50 (INS1 [5]): 32.7 µM (active)
- AC50 [6]: 28.8 µM (active)
- AC50 [7]: > 52 µM (inactive)
- AC50 [8]: 23.7 µM (active)
- AC50 [9]: 38.6 µM (active)
- AC50 [10]: 15 µM (active)
- AC50 [11]: 9.82 µM (active)
- AC50 (INS1 [12]): 30.7 µM (active)

- Ki [13]: 0.0158 µM (active)
- Ki [14]: 0.398 µM (active)
- Ki [15]: 0.0501 µM (active)
- Ki [16]: 0.1 µM (active)
- Ki [17]: > 7.94 µM (inactive)
- Ki [18]: 3.98 µM (active)
SMILES: c1ccc(Cn2cc(-c3ccc4[nH]nc(-c5cn(Cc6ccccc6)nn5)c4c3)nn2)cc1

— ChEMBL document CHEMBL1201862, “PubChem BioAssay data set” (2004)
